Experimental data published in patent US20130123285A1, “Compositions and Methods for Targeting A3G:RNA Complexes” (UNIVERSITY OF ROCHESTER, priority 2010, published 2013).

How the values were obtained:
[1] = molecular target: T1, A3G:RNA complexes (Homo sapiens, UniProt Q9HC16); assay: EMSA of A3G:RNA complexes assembled on radiolabeled RNA (disaggregation of HMM); format: binding; conditions: range of concentrations
T1 construct: polyhistidine (C); made in house; host or cells: Baculovirus-infected Sf9 insect cells
T1 sequence (Q9HC16 whole entry, one chain of several): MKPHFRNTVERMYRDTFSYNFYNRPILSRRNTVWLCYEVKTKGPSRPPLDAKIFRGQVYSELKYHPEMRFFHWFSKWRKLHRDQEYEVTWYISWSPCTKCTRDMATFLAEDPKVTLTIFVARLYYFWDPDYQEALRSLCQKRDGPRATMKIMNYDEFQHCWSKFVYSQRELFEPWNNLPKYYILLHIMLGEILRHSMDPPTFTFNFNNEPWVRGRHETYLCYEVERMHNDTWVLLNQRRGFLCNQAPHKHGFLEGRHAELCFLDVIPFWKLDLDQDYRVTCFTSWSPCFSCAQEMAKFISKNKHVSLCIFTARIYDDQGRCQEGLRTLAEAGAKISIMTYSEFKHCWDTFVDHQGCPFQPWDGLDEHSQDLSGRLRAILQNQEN
Procedure: The Electrophoretic Gel Mobility Shift Assay (EMSA) provides a visual and quantitative measure of the efficiency of A3G-RNA complex formation. EMSA was used initially to determine the optimum buffer conditions, molar ratio of A3G to RNA as well as the temperature and the duration of the complex assembly reaction.
The four compounds depicted in FIG. 7 were evaluated for their ability to disaggregate A3G:RNA complexes by treating A3G:RNA complexes assembled on radiolabeled RNA with each chemistry over a range of concentrations and then evaluated for size reduction of HMM by EMSA.

[2] = molecular target: T2, A3G (Homo sapiens, UniProt Q9HC16); assay: In vitro DNA deaminase activity of purified A3G; format: biochemical; conditions: purified A3G treated at varying concentrations
T2 construct: polyhistidine (C); made in house; host or cells: Baculovirus-infected Sf9 insect cells
T2 sequence (Q9HC16 whole entry): as the sequence (Q9HC16 whole entry, one chain of several) above

[3] = molecular target: T3, HMM A3G (A3G:RNA complexes assembled in cells) (Homo sapiens, UniProt Q9HC16); assay: In vitro deaminase activity of HMM isolated from TZM-bl-A3G cells; format: biochemical; conditions: 20 μM
T3 construct: expressed in transfected cells; host or cells: TZM-bl cells stably transfected with A3G cDNA (TZM-bl-A3G); The HMM fraction was isolated from cell extracts by size exclusion chromatography
T3 sequence (Q9HC16 whole entry, one chain of several): as above
Procedure: Experiments were performed to directly test whether the compounds could activate antiviral activity from HMM in living cells. For this a cell line that expressed A3G as HMM was created. TZM-bl reporter cells were transfected with A3G cDNA and a cell line with stable expression of A3G was selected (TZM-bl-A3G). To verify HMM A3G, cell extracts were prepared from TZM-bl-A3G cells and fractionated by size exclusion chromatography. […] Isolated HMM had low levels of in vitro deaminase activity (4% dC to dU) that could be activated 10-fold by RNase digestion (FIG. 12, top panel). Treatment of HMM with 20 μM Clonidine and Altanserin activated A3G deaminase activity 6- and 8-fold respectively compared to untreated HMM (FIG. 12, bottom panel).

[4] = tested on: pseudotyped HIV in TZM-bl cells; assay: Single round infectivity of pseudotyped HIV in wild type TZM-bl cells; format: cell-based; conditions: viruses +/- Vif
Text: (§1) Viral particles were harvested from media of producer cells, normalized based on p24 content and equal number of virus particles were used to infect wild type TZM-bl or TZM-bl-A3G cells. […] However, HIV replication and, consequently Tat expression, are anticipated to be inhibited if dissolution of HMM by A3G activators was able to stimulate host defense.

[5] = tested on: pseudotyped HIV in TZM-bl-A3G cells; assay: microbe, parasite or virus in culture; format: cell-based
Text: as §1

[6] = molecular target: APOBEC3G (hA3G) (Homo sapiens, UniProt Q9HC16 Q9HC16:1-384); assay: EMSA; Kd stated for optimal AU-rich RNA with G or C every fourth nucleotide; 99 nt RNA selected for the assay; conditions: tags: C-terminal polyhistidine tag
APOBEC3G (hA3G), sequence (Q9HC16 whole entry, one chain of several): as above
Procedure: Experiments were performed to determine what length and sequence of nonspecific RNA would yield the most efficient formation of A3G:RNA complexes. A3G was expressed using the Baculovirus system and purified by nickel affinity chromatography. RNAs varying in GC and AU content were synthesized chemically or transcribed in vitro in lengths varying from 10 to 99 nucleotides (nt). A3G:RNA complexes were assembled in vitro with these RNAs over a range of A3G concentrations and the yield of small and large complexes determined by electrophoretic mobility shift on native gels (EMSA). […] A 99 nt RNA was selected for the HTS assay. The RNA used for the following data had the sequence: […]

Clc1cccc(Cl)c1N=C1NCCN1 [Clonidine]
dissolution of A3G:RNA aggregates (HMM) by EMSA [1]: dose-dependent dissolution of A3G:RNA aggregates to faster migrating lower molecular mass (LMM) complexes
inhibition of A3G deaminase activity [2]: none of the hits inhibited A3G deaminase activity
activation of A3G deaminase activity compared to untreated HMM [3]: 6 fold
antiviral activity in TZM-bl cells [4]: not in TZM-bl cells

O=C(c1ccc(F)cc1)C1CCN(CCn2c(=S)[nH]c3ccccc3c2=O)CC1 [Altanserin]
dissolution of A3G:RNA aggregates (HMM) by EMSA [1]: completely dissociate RNA from a portion of the A3G complexes
inhibition of A3G deaminase activity [2]: none of the hits inhibited A3G deaminase activity
activation of A3G deaminase activity compared to untreated HMM [3]: 8 fold
inhibition at 20 µM ([5]; Human immunodeficiency virus 1, read-out: inhibition of viral infectivity): > 40%
antiviral activity in TZM-bl-A3G cells ([5]; viruses +/- Vif): induced antiviral activity in TZM-bl-A3G cells
antiviral activity in TZM-bl cells [4]: not in TZM-bl cells

B1: 99 nt nonspecific AU-rich RNA (ssRNA)
RNA: GGGAACAAAAGCUGGGUACCGGGCCCCCCCUCGAGGUCGAUGCAGACAUAUAUGAUACAAUUUGAUCAGUAUAUUAAAGAUAGUUAUGAUUUACAAGCU
Kd [6]: 30 nM
